In paper PMC11919252 (eLife, 2025):
“Also recorded” adds a separate entry of the source. Structures can show the parent of a compound that is named as a salt.

Assays:
[1] = test system: WT and Tac1::Calca DKO mice; assay: AITC-evoked licking; format: in vivo, mouse; conditions: 1% AITC in saline, 20 µl intraplantar; 5 min; WT n=12, DKO n=12
Experimental: (§1) 0.3% capsaicin in 80% saline / 10% Tween-80 /10% ethanol or 1% AITC in saline was injected into the plantar surface of the hind paw. The injected volume for both was 20 µl. Mice were video-taped for 5 min. A blinded observer scored the amount of time in seconds the mouse spent licking the injected paw in a 5-min time period.

[2] = test system: hindpaw of WT and DKO mice; assay: Hindpaw swelling (edema), plethysmometer; format: in vivo, mouse; conditions: for Swelling of the hindpaw, DKO versus WT: observation after injection of CFA, PGE2, AITC or capsaicin
Experimental: (§2) Mice were anesthetized using isoflurane. 200 μl of Evans Blue dye was injected into the mouse’s tail vein. 15 mins later, one hindpaw was injected with an algogen. After a further 30 min, the volume of each paw was measured by displacement using a plethysmometer (Ugo Basile). Both paws were then cut at the ankle and placed in tubes in the oven at 55 °C for 24 hr to dry. 1 ml of formamide was then added to each paw and incubated for 4-6 days at 55 °C to extract the dye from the paw tissue. 50 μl samples of dye-infused formamide from each paw were then dispensed to a 96-well plate in duplicate, along with a range of Evans blue dilutions in formamide to generate a standard curve. The optical density of each sample was then measured using a plate-reader, and the concentration of Evans Blue per paw sample interpolated from the standard curve to generate an index of extravasation in that paw.

[3] = test system: hindpaw of WT and DKO mice; assay: Plasma extravasation, Evans blue assay; format: in vivo, mouse; conditions: for Paw swelling and plasma extravasation (images): injected (left) compared to uninjected (right) paw, WT and DKO mice
Experimental: as §2

[4] = test system: CGRP receptor (Calcrl and Ramp1) in CGRP-sniffer HEK293 cells co-cultured with DRG neurons; assay: Co-culture of DRG neurons and CGRP-sniffer cells (CGRP release); format: cell-based, mouse
[5] = test system: WT and Tac1::Calca DKO mice; assay: Conditioned taste aversion; format: in vivo, mouse; conditions: LiCl 200 mg/kg; saccharin 15 mM; WT n=7, DKO n=6
Experimental: Mice were single-housed and habituated for 3 days to drink from two glass bottles with stainless-steel ball-bearing spouts. Mice then received 3 days of training, where they were water-deprived for 22 hr followed by 30 min exposure to a single water-containing bottle, then 90 min exposure to both bottles. On the conditioning day, after 22 hr of water deprivation, mice were exposed to a single bottle containing saccharin water (15 mM) for 45 min. Mice were then injected with lithium chloride (200 mg/kg) or PBS, and then given ordinary water for 75 min. The animals were then water deprived for a further 22 hr. On the test day, mice were simultaneously exposed to a bottle containing water and a bottle containing saccharin for 45 min. The volume of each solution consumed was measured by weighing the bottles before and after. To calculate the saccharin preference index of each animal, the volume of saccharin consumed was divided by the total of fluid consumed, with a value less than 0.5 indicating the development of an aversion to saccharin.

[6] = test system: WT and Tac1::Calca DKO mice; assay: Inflammatory mechanical hypersensitivity (von Frey); format: in vivo, mouse; conditions: PGE2 20 μl, 500 nM intraplantar; up to 120 min; WT n=6, DKO n=6
Experimental: Punctate mechanical sensitivity was measured using the up-down method of Chaplan to obtain a 50% withdrawal threshold ([Chaplan et al., 1994]). Mice were habituated on a mesh wire stand for 1 hr. A 0.16 g Von Frey hair was applied to the plantar region of the paw for 2 s. A response was recorded when the mouse swiftly lifted its paw in response to the stimulus. […] To calculate the 50% withdrawal threshold, five responses surrounding the 50% threshold were obtained after the first change in response. The pattern of responses was used to calculate the 50% threshold = (10[χ+κδ]/10,000), where χ is the log of the final von Frey filament used, κ=tabular value for the pattern of responses and δ the mean difference between filaments used in log units. The log of the 50% threshold was used to calculate summary and test statistics.
(§3) CFA and PGE2 was purchased from Sigma. 20 μl of CFA was injected into the heel of the hind paw. PGE2 (20 μl, 500 nM) was injected into the plantar surface of the hindpaw, and behavior was assessed over the same time-frame that produces in vivo sensitization of nociceptor responses (up to 120 min). Inflammation-induced hypersensitivity was measured using the Hargreaves and the von Frey, as described above.

[7] = test system: WT and Tac1::Calca DKO mice; assay: Inflammatory heat hypersensitivity (Hargreaves); format: in vivo, mouse; conditions: PGE2 20 μl, 500 nM intraplantar; up to 120 min; WT n=10, DKO n=10
Experimental: The radiant heat stimulus was aimed for the centre of the plantar region of the mouse’s hind paw. The active intensity of the low stimulus was 40 intensity units, and of the high stimulus 55. The response latency was recorded for five trials with 10 min breaks in between each trial.
as §3

[8] = test system: WT and Tac1::Calca DKO mice; conditions: 0.6% acetic acid, intraperitoneal, 10 μl/g; 15 min from 5 min after injection; WT n=9, DKO n=7
Experimental: Mice were habituated on a plexiglass stand for 1 hr. 0.6% of acetic acid was injected intraperitoneally at a dose of 10 μl/g weight of the animal. Mice were videotaped for 20 min. The number of writhes was quantified post-hoc by a blinded observer during a 15-min interval between 5 and 20 min after injection.

[9] = test system: Substance P receptor (NKR1) in Substance P-sniffer HEK293 cells co-cultured with DRG neurons; assay: Co-culture of DRG neurons and Substance P-sniffer cells (Substance P release); format: cell-based, mouse; conditions: capsaicin 10 μM
[10] = test system: dorsal horn of WT and DKO mice; assay: Capsaicin-evoked dorsal horn Fos staining; format: in vivo, mouse; conditions: capsaicin 0.3% hindpaw; WT n=5, DKO n=4
Experimental: […]. After 1 week, mice were habituated then the stimulation was performed. For capsaicin-evoked dorsal horn Fos, capsaicin (0.3%) was injected into the right hindpaw of mice in chambers on a plexiglass stand. For Fos elicited by dynamic allodynia stimulation, mice that received a spared nerve injury procedure 3 weeks prior were stimulated with a paint brush while housed on a wire mesh stand (3x10 min stimulation period, with 1-min rest every 10 min). Note that for SNI experiments, the CTB was injected into the contralateral paw, because severing two branches of the sciatic nerve would have prevented efficient CTB transit in the ipsilateral paw. The mice were perfused as above and spinal cords were harvested 75–120 min after stimulation. The sections were incubated in a blocking buffer (5% goat serum; 0.1% Triton X-100; PBS) for 3 hr at room temperature on a shaker. The sections were incubated in 1:1000 rabbit anti Fos primary antibody (Cell Signaling Technology, Phospho-c-Fos (Ser32) (D82C12) XP Rabbit mAb, #5348) at room temperature overnight. […] This ensured Fos activity was measured only in those sections strongly innervated by the hindpaw. The number of Fos-positive nuclei in the dorsal horn were quantified in ImageJ/FIJI software (National Institute of Health) by a blinded observer using a semi-automated procedure. […]

[11] = test system: WT and Tac1::Calca DKO mice; assay: Capsaicin-evoked licking; format: in vivo, mouse; conditions: 0.3% capsaicin, 20 µl intraplantar, 5 min
Experimental: as §1

[12] = test system: WT and Tac1::Calca DKO mice; assay: Chloroquine-induced itch; format: in vivo, mouse; conditions: chloroquine 20 μl of 25 μM intradermal, nape of neck; 15 min; WT n=8, DKO n=11
Experimental: Hair from the nape of the mouse’s neck was removed 2–3 days prior to behavioral experiments using VEET hair removal cream and the area thoroughly washed and moisturizing cream applied. Mice were habituated to transparent acrylic chambers (10cm x 10cm x 13 cm) 30 min prior to injection. Post habituation, a blinded investigator injected 20 μl of 25 μM Chloroquine diphosphate salt (Sigma-Aldrich: C6628) solution in 0.9% saline intradermally into the nape of the neck using a 31 G insulin syringe. Videos were quantified by a separate blinded investigator with a scratching bout counted each time the mouse attended to the injected area with the hind paw after the paw was removed from the floor or mouth.

In the case of `C=CCN=C=S` [AITC, allyl isothiocyanate], the “Licking behavior after AITC” value [1] is reported as “evoked similar licking behavior to capsaicin that was unaffected by peptide deletion”, the “Swelling of the hindpaw, DKO versus WT” value [2] is reported as “provoked swelling of the hindpaw of DKO mice to a similar extent as WT mice” and the “Paw swelling and plasma extravasation (images)” value [3] is reported as “both WT and DKO mice show paw swelling and plasma extravasation”.

`CC(C)C[C@H](NC(=O)CNC(=O)[C@H](C)NC(=O)[C@H](CC(C)C)NC(=O)[C@H](CCCNC(=N)N)NC(=O)[C@H](Cc1c[nH]cn1)NC(=O)[C@@H](NC(=O)[C@@H](NC(=O)[C@@H]1CSSC[C@H](NC(=O)[C@@H](N)CO)C(=O)N[C@@H](CC(N)=O)C(=O)N[C@@H]([C@@H](C)O)C(=O)N[C@@H](C)C(=O)N[C@@H]([C@@H](C)O)C(=O)N1)C(C)C)[C@@H](C)O)C(=O)N[C@@H](CC(C)C)C(=O)N[C@@H](CO)C(=O)N[C@@H](CCCNC(=N)N)C(=O)N[C@@H](CO)C(=O)NCC(=O)NCC(=O)N[C@H](C(=O)N[C@H](C(=O)N[C@@H](CCCCN)C(=O)N[C@@H](CC(=O)O)C(=O)N[C@@H](CC(N)=O)C(=O)N[C@@H](Cc1ccccc1)C(=O)N[C@H](C(=O)N1CCC[C@H]1C(=O)N[C@H](C(=O)N[C@@H](CC(N)=O)C(=O)N[C@H](C(=O)NCC(=O)N[C@@H](CO)C(=O)N[C@@H](CCC(=O)O)C(=O)N[C@@H](C)C(=O)N[C@@H](Cc1ccccc1)C(N)=O)C(C)C)[C@@H](C)O)C(C)C)C(C)C)C(C)C` [CGRPα] was tested, and the “CGRP-sniffer activation by exogenous CGRPα” value ([4]; CGRPα saturating concentration 100–1000 nM, co-culture with WT and DKO DRG, n=18 wells per genotype) was “activates CGRP-sniffers in both conditions”.

For `[Cl-].[Li+]` [LiCl, lithium chloride], the “Conditioned taste aversion to saccharin” value [5] was “pronounced aversion to the usually-preferred saccharin; also recorded: strong and indistinguishable conditioned taste aversion in both WT and DKO mice”.

In the case of `CCCCC[C@H](O)/C=C/[C@H]1[C@H](O)CC(=O)[C@@H]1C/C=C\CCCC(=O)O` [PGE2, Prostaglandin E2], the “Swelling of the hindpaw, DKO versus WT” value [2] is reported as “provoked swelling of the hindpaw of DKO mice to a similar extent as WT mice”, the “Mechanical hypersensitivity, von Frey” value [6] is reported as “short-lasting heat and mechanical hypersensitivity to a similar extent in both WT and DKO mice” and the “Heat hypersensitivity, Hargreaves” value [7] is reported as “short-lasting heat and mechanical hypersensitivity to a similar extent in both WT and DKO mice”.

With `CC(=O)O` [acetic acid] the Writhing behavior [8] was “comparable writhing behavior in both WT and DKO mice”.

For `COc1cc(CNC(=O)CCCC/C=C/C(C)C)ccc1O` [capsaicin], the “Substance P-sniffer GCaMP response evoked by capsaicin” value ([9]; DKO DRG neurons) was “no Substance P-sniffer cell responses”, the “Substance P-sniffer GCaMP6s fluorescence” value ([9]; WT versus DKO DRG co-culture, n=12 wells from 2 mice per genotype) was “increase in Substance P-sniffer GCaMP6s fluorescence when cultured with DRGs from WT, but not DKO, mice” and the “Substance P-sniffer GCaMP response evoked by capsaicin” value ([9]; control (WT) DRG neurons) was “robust GCaMP responses”. For the same compound, the “Capsaicin-evoked dorsal horn Fos expression” value [10] was “No differences in dorsal horn Fos expression were observed”, the “Licking responses after capsaicin” value ([11]; WT n=9, DKO n=8) was “evoked coping-like licking responses in both genotypes” and the “Licking, difference WT versus DKO after capsaicin” value ([11]; unpaired t-test) was “differences did not reach statistical significance”. The “CGRP-sniffer activity evoked by DKO neurons” value ([4]; capsaicin application, DKO DRG neurons) was “markedly reduced activity”, the “CGRP-sniffer calcium response evoked by capsaicin” value ([4]; capsaicin application, WT DRG neurons) was “strong increases in calcium” and the “CGRP-sniffer GCaMP6s fluorescence” value ([4]; capsaicin, WT versus DKO DRG co-culture, n=18 wells from 3 mice per genotype) was “increase in CGRP-sniffer GCaMP6s fluorescence when cultured with DRGs from WT, but not DKO, mice”. The “Paw swelling by volume, WT versus DKO” value ([2]; capsaicin injection, 30 min, normalized to uninjected paw, WT n=9, DKO n=7) was “no appreciable differences in capsaicin-induced swelling between WT and DKO mice”, the “Swelling of the hindpaw, DKO versus WT” value [2] was “provoked swelling of the hindpaw of DKO mice to a similar extent as WT mice” and the Plasma extravasation ([3]; capsaicin injection, Evans blue optical density normalized to uninjected paw, WT n=9, DKO n=7) was “plasma extravasation was intact in DKO mice”. The “Paw swelling and plasma extravasation (images)” value [3] was “both WT and DKO mice show paw swelling and plasma extravasation”.

For `CCN(CC)CCCC(C)Nc1ccnc2cc(Cl)ccc12` (centres unmarked) [chloroquine, Chloroquine diphosphate salt], the Scratching [12] was “DKO mice scratched robustly”.
